Values joined by “and” are separate entries in the source; they are usually repeats but may differ in a detail not shown here. Equal values may be shown once. “Also recorded” adds a separate entry of the source.
How the values were obtained:
C. elegans AChE = assay: Determination of IC50 of compounds to AChE (Ellman method, nematode homogenate); assay type: biochemical; conditions: 2-h incubation at 37°C, mean ± SD, triplicates, read-out: IC50 of AChE inhibition
Procedure: Third-instar juvenile stage samples of C. elegans were thoroughly ground using a glass homogenizer. The homogenate was then dissolved in PBS (pH 7.0, which contained 0.1% Triton X-100) using a suitable volume, followed by a 30-min centrifugation at 6000 r/min under 4°C to harvest supernatants to analyze the enzymes ([Ellman et al., 1961]; [Zhao et al., 2018]) [Nematode (3rd instar): 4000 individuals/mL].
After dissolving the eight compounds and chlorpyrifos in acetone, multiple dilutions were made to obtain test concentrations at 5 levels. Thereafter, the test solution of every level (4 µL) was blended with the enzyme solution (96 µL), followed by 2-h incubation at 37°C in a 96-well plate. The final concentrations of compounds were 29.25, 58.50, 117.00, 234.00, and 468.00 µg/mL, respectively. Thereafter, 1.5 mM acetylthiocholine iodide (ATCHI) (50 µL) was added for a further 0.5-h incubation at 37°C. The reaction was finally terminated by adding 0.3 mM 5,5′- dithiobis (2 - nitrobenzoic acid) (DTNB) (50 µL). Afterward, the residual activity of acetylcholinesterase was measured with a microplate reader at 405 nm. Corresponding treatments were then applied to different groups as given below:
The inhibition rate (%) was calculated follows:
I%=[1−(Treatment group−Compound control group)/(Substrate control group−PBS control group)]×100%

C. elegans = assay: Toxic effects of compounds on C. elegans (lethality); assay type: in vivo; conditions: Caenorhabditis elegans, 48 h, mean ± SD, read-out: Lethality rate (%); for mortality at 500 µg/mL: compound 0.5 mg/mL
Procedure: In the toxicity analysis, 95 µL of the nematode solution (containing approximately 80 C. elegans) along with 5 µL of each compound was added to a 96-well plate. The final concentration of each compound was 0.5 mg/mL, and chlorpyrifos (20 µg/mL) was used as the positive control. The samples were mixed sufficiently, followed by 48-h incubation of plates under RT, and subsequently, the dead nematodes were counted to determine the lethality rate ([Roh and Choi, 2008]).

nematode AChE = assay: Kinetic study on the inhibitory effect of AChE by compound (Lineweaver-Burk and Dixon plots); assay type: biochemical, C. elegans
Procedure: This study prepared the enzyme solution at multiple gradients (0.125, 0.25, 0.5, and 1.0 U/mL). After adding compound 5 (29.25, 58.50, 117.00, 234.00, and 468.00 µg/mL), the mixed sample was then subjected to a 1-h incubation on a 96-well plate at 37°C (the buffer was used as a substitute for the control group). Later, 1.5 mM ATCHI (50 µL) was added and incubated for a 30-min period, followed by an addition of the 0.3 mM DTNB (50 µL). After 30 s, a microplate reader was utilized to record the OD value at 405 nm (five times at 1-min intervals). The change in the OD value every minute was used to calculate the reaction rate (ΔA/min). Later, the reaction rate curve, as a function of enzyme concentration, was plotted to compare reaction rates (v) among diverse test compound levels. Associations between diverse enzyme levels were utilized to evaluate the inhibitory effect of the compound on nematode AChE ([Xiong et al., 2016]).

Structure (SMILES) | IC50 (C. elegans AChE) | mortality at 20 µg/mL (C. elegans; positive control 20 µg/mL) [%] | mortality at 500 µg/mL (C. elegans) [%] | Ki (dissociation constant of the enzyme-inhibitor complex) (nematode AChE; Dixon plot, substrate 3 and 6 mM) [µg/mL] | type of AChE inhibition (nematode AChE; enzyme-concentration plot, Lineweaver-Burk and Dixon plots)
CCOP(=S)(OCC)Oc1nc(Cl)c(Cl)cc1Cl [Chlorpyrifos, chlorpyrifos, reference compound] | 7.33 ± 0.58 µM | 81.7 ± 2.6 | – | – | –
C=C(C(=O)O)C1CCC2=CC(O)CC(C)C2(C)C1 (centres unmarked) [Compound 1, laggeranine A] | < 530 µM and 518 µM | – | 38.8 ± 2.5 | – | –
C=C(C(=O)OCC)[C@@H]1CC[C@@]2(C)CCCC(=C)[C@]2(O)C1 [Compound 2, laggeranine B] | < 710 µM and 701 µM | – | 31.7 ± 0.72 | – | –
C=C(C(=O)O)[C@H]1C=C2[C@@H](C)CCC[C@]2(C)CC1 [Compound 3, eudesma-5,12-dien-13-oic acid] | 464 ± 10 µM | – | 60.8 ± 2.6 | – | –
C=C(C(=O)O)[C@@H]1CC[C@@]2(C)CCCC(C)=C2C1 [Compound 4, isocostic acid] | < 530 µM and 528 µM | – | 30.8 ± 1.91 | – | –
C=C1CCC[C@]2(C)CC[C@@H](C(=C)C(=O)O)CC12 (some centres unmarked) [Compound 5, costic acid] | 437 ± 8.33 µM | – | 72.9 ± 3.15 | 24.668 | reversible inhibitor; also recorded: mixed-type competitive
C=C(C(=O)O)[C@@H]1CC[C@@]2(C)CCC[C@H](C)[C@]2(O)C1 [Compound 6, 5α-hydroxy-4α,15-dihydrocostic acid] | 470 ± 15.6 µM | – | 48.8 ± 2.5 | – | –
C=C(C(=O)O)[C@@H]1CC[C@@]2(C)CCCC(=C)[C@]2(O)C1 [Compound 7, 5α-hydroxycostic acid] | 485 ± 11.5 µM | – | 50.8 ± 1.91 | – | –
C=C(C(=O)O)[C@@H]1CC[C@@]2(C)CCC(=O)C(C)=C2C1 [Compound 8, 3-oxo-di-nor-eudesma-4-en-11-oic acid] | < 710 µM and 697 µM | – | 34.6 ± 1.44 | – | –

Source: publication PMC9950556, “Acetylcholinesterase inhibitory activity of sesquiterpenoids isolated from Laggera pterodonta” (Frontiers in Plant Science, 2023)
